# From the supplement of paper PMC11208160
# Test: recombinant UMI read abundance after kanamycin selection (control-corrected) (log10(CPM+1)); higher = more efficient recombination; extreme values may be limits of the assay; sequences stand for … in AGTGCAGAGAAAATCGGCCAGTTTTCTCTGCCTGCAGTCCGCATGCCGTGGGACCCCTTGGGTTCTAACCTGTTGCCTAGATTTATGCAGCGGACTGCCTTTCTCCCAAAGTGATAAACCGG…AGGTTGGTTTCACT; site = the 11-nt donor
# Summary of the method: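 In Escherichia coli, a pool of donor and donor-binding-loop pairs, each with a 12-nt UMI, was tested for the IS621 bridge recombinase. Plating was on IPTG (0.07 mM) plus kanamycin, or without selection, in two replicates. Recombinant UMIs were amplified by PCR across the donor–target junction and sequenced, and counts were reported as log10(CPM+1) after averaging and control-derived scaling.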
# 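Note: IS621 bridge recombinase in Escherichia coli cells against a fixed T5 target plasmid.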
row,Sequence,recombinant UMI read abundance (log10)
1,TGGCCGGCATGGACCGGTTTTCCCGGTAATCCGTATTTGGC (site TGGTCGGCTGC),0.00844
2,TGGCCGGCATGGACCGGTTTTCCCGGTAATCCGTATTTGGC (site TGTCCGGCTGC),0
3,TGGCCGGCATGGACCGGTTTTCCCGGTAATCCGTATTTGGC (site TTGCCGGCTGC),0.00854
4,TGGCCGTCATGGACCGGTTTTCCCGGTAATCCGTATTTGAG (site TGGCCGTCTCT),0.297
5,TGGCCTGCATGGACCGGTTTTCCCGGTAATCCGTATTTGGC (site TGGCCAGCTGC),0
6,TGGCCTGCATGGACCGGTTTTCCCGGTAATCCGTATTTGGC (site TGGCCCGCTGC),0
7,TGGCCTGCATGGACCGGTTTTCCCGGTAATCCGTATTTGGC (site TGGCCGGCTGC),0
8,TGGCCTGCATGGACCGGTTTTCCCGGTAATCCGTATTTGGC (site TGGCCTGCTGC),0
9,TGGCTAGCATGGACCGGTTTTCCCGGTAATCCGTATTTGAA (site TAGCTAGCTTT),0.00919
10,TGGCTAGCATGGACCGGTTTTCCCGGTAATCCGTATTTGAA (site TCGCTAGCTTT),0.0168
11,TGGCTAGCATGGACCGGTTTTCCCGGTAATCCGTATTTGAA (site TGGCTAGCTTT),1.06
12,TGGCTAGCATGGACCGGTTTTCCCGGTAATCCGTATTTGAA (site TTGCTAGCTTT),0.00374
13,TGGCTCTCATGGACCGGTTTTCCCGGTAATCCGTATTTGCA (site TGGCTCTCTTG),1.86
14,TGGGAACCATGGACCGGTTTTCCCGGTAATCCGTATTTGAT (site AGGGAACCTAT),0
15,TGGGAACCATGGACCGGTTTTCCCGGTAATCCGTATTTGAT (site CGGGAACCTAT),0.00502
16,TGGGAACCATGGACCGGTTTTCCCGGTAATCCGTATTTGAT (site GGGGAACCTAT),0
17,TGGGAACCATGGACCGGTTTTCCCGGTAATCCGTATTTGAT (site TGGGAACCTAT),0.00982
18,TGGTCCACATGGACCGGTTTTCCCGGTAATCCGTATTTGTC (site TGGTCCACTGA),0.323
19,TGGTCCCCATGGACCGGTTTTCCCGGTAATCCGTATTTGTA (site TGATCCCCTTA),0
20,TGGTCCCCATGGACCGGTTTTCCCGGTAATCCGTATTTGTA (site TGCTCCCCTTA),0.176
21,TGGTCCCCATGGACCGGTTTTCCCGGTAATCCGTATTTGTA (site TGGTCCCCTTA),0.0183
22,TGGTCCCCATGGACCGGTTTTCCCGGTAATCCGTATTTGTA (site TGTTCCCCTTA),0.00825
23,TGGTGCACATGGACCGGTTTTCCCGGTAATCCGTATTTGCC (site TGGTGCACTGG),1.75
24,TGGTTCCCATGGACCGGTTTTCCCGGTAATCCGTATTTGTG (site AGGTTCCCTCA),0.0205
25,TGGTTCCCATGGACCGGTTTTCCCGGTAATCCGTATTTGTG (site CGGTTCCCTCA),0.0117

row,Sequence,recombinant UMI read abundance (log10)
1,TGGTTCCCATGGACCGGTTTTCCCGGTAATCCGTATTTGTG (site GGGTTCCCTCA),0.0263
2,TGGTTCCCATGGACCGGTTTTCCCGGTAATCCGTATTTGTG (site TGGTTCCCTCA),0.0117
3,TGGTTGACATGGACCGGTTTTCCCGGTAATCCGTATTTGTA (site TGGTTGACTTA),1.04
4,TGGTTTCCATGGACCGGTTTTCCCGGTAATCCGTATTTGGG (site TGGTTTCCTCC),0.327
5,TGTACACCATGGACCGGTTTTCCCGGTAATCCGTATTTGAC (site AGTACACCTGT),0
6,TGTACACCATGGACCGGTTTTCCCGGTAATCCGTATTTGAC (site CGTACACCTGT),0
7,TGTACACCATGGACCGGTTTTCCCGGTAATCCGTATTTGAC (site GGTACACCTGT),0
8,TGTACACCATGGACCGGTTTTCCCGGTAATCCGTATTTGAC (site TATACACCTGT),0
9,TGTACACCATGGACCGGTTTTCCCGGTAATCCGTATTTGAC (site TCTACACCTGT),0
10,TGTACACCATGGACCGGTTTTCCCGGTAATCCGTATTTGAC (site TGAACACCTGT),0
11,TGTACACCATGGACCGGTTTTCCCGGTAATCCGTATTTGAC (site TGCACACCTGT),0
12,TGTACACCATGGACCGGTTTTCCCGGTAATCCGTATTTGAC (site TGGACACCTGT),0.00576
13,TGTACACCATGGACCGGTTTTCCCGGTAATCCGTATTTGAC (site TGTAAACCTGT),0
14,TGTACACCATGGACCGGTTTTCCCGGTAATCCGTATTTGAC (site TGTACAACTGT),0
15,TGTACACCATGGACCGGTTTTCCCGGTAATCCGTATTTGAC (site TGTACACCTAT),0.0116
16,TGTACACCATGGACCGGTTTTCCCGGTAATCCGTATTTGAC (site TGTACACCTCT),0.0222
17,TGTACACCATGGACCGGTTTTCCCGGTAATCCGTATTTGAC (site TGTACACCTGA),0
18,TGTACACCATGGACCGGTTTTCCCGGTAATCCGTATTTGAC (site TGTACACCTGC),0
19,TGTACACCATGGACCGGTTTTCCCGGTAATCCGTATTTGAC (site TGTACACCTGG),0
20,TGTACACCATGGACCGGTTTTCCCGGTAATCCGTATTTGAC (site TGTACACCTGT),0
21,TGTACACCATGGACCGGTTTTCCCGGTAATCCGTATTTGAC (site TGTACACCTTT),0.0141
22,TGTACACCATGGACCGGTTTTCCCGGTAATCCGTATTTGAC (site TGTACAGCTGT),0
23,TGTACACCATGGACCGGTTTTCCCGGTAATCCGTATTTGAC (site TGTACATCTGT),0
24,TGTACACCATGGACCGGTTTTCCCGGTAATCCGTATTTGAC (site TGTACCCCTGT),0
25,TGTACACCATGGACCGGTTTTCCCGGTAATCCGTATTTGAC (site TGTACGCCTGT),0

row,Sequence,recombinant UMI read abundance (log10)
1,TGTACACCATGGACCGGTTTTCCCGGTAATCCGTATTTGAC (site TGTACTCCTGT),0
2,TGTACACCATGGACCGGTTTTCCCGGTAATCCGTATTTGAC (site TGTAGACCTGT),0
3,TGTACACCATGGACCGGTTTTCCCGGTAATCCGTATTTGAC (site TGTATACCTGT),0
4,TGTACACCATGGACCGGTTTTCCCGGTAATCCGTATTTGAC (site TGTCCACCTGT),0
5,TGTACACCATGGACCGGTTTTCCCGGTAATCCGTATTTGAC (site TGTGCACCTGT),0
6,TGTACACCATGGACCGGTTTTCCCGGTAATCCGTATTTGAC (site TGTTCACCTGT),0
7,TGTACACCATGGACCGGTTTTCCCGGTAATCCGTATTTGAC (site TTTACACCTGT),0
8,TGTACACCATGGACCGGTTTTCCCGGTAATCCGTATTTGAG (site TGTACACCTAT),0.0116
9,TGTACACCATGGACCGGTTTTCCCGGTAATCCGTATTTGAG (site TGTACACCTCT),0.00855
10,TGTACACCATGGACCGGTTTTCCCGGTAATCCGTATTTGAG (site TGTACACCTGT),0
11,TGTACACCATGGACCGGTTTTCCCGGTAATCCGTATTTGAG (site TGTACACCTTT),0.0116
12,TGTACACCATGGACCGGTTTTCCCGGTAATCCGTATTTGGC (site TGTACACCTGA),0
13,TGTACACCATGGACCGGTTTTCCCGGTAATCCGTATTTGGC (site TGTACACCTGC),0.00484
14,TGTACACCATGGACCGGTTTTCCCGGTAATCCGTATTTGGC (site TGTACACCTGG),0
15,TGTACACCATGGACCGGTTTTCCCGGTAATCCGTATTTGGC (site TGTACACCTGT),0
16,TGTACGCCATGGACCGGTTTTCCCGGTAATCCGTATTTGAC (site TGTACACCTGT),0
17,TGTACGCCATGGACCGGTTTTCCCGGTAATCCGTATTTGAC (site TGTACCCCTGT),0
18,TGTACGCCATGGACCGGTTTTCCCGGTAATCCGTATTTGAC (site TGTACGCCTGT),0
19,TGTACGCCATGGACCGGTTTTCCCGGTAATCCGTATTTGAC (site TGTACTCCTGT),0
20,TGTACGCCATGGACCGGTTTTCCCGGTAATCCGTATTTGTA (site TGTACGCCTTA),0.00598
21,TGTACTGCATGGACCGGTTTTCCCGGTAATCCGTATTTGCC (site TGTACTGCTGG),0.865
22,TGTACTTCATGGACCGGTTTTCCCGGTAATCCGTATTTGGT (site TGTACTTCTAC),1.38
23,TGTAGTGCATGGACCGGTTTTCCCGGTAATCCGTATTTGCC (site TGTAGTGCTGG),1.56
24,TGTAGTGCATGGACCGGTTTTCCCGGTAATCCGTATTTGCT (site TGTAGTGCTAG),1.16
25,TGTATCACATGGACCGGTTTTCCCGGTAATCCGTATTTGAA (site TGTATCACTTT),0.00408
